Data from PMC12263422, “Cryo-EM structure of the human THIK-1 K2P K^+ channel reveals a lower Y gate regulated by lipids and anesthetics” (Nature Structural & Molecular Biology, 2025).
pEC50, pIC50: −log10 of the molar value. “And” between values parts separate entries of the source, which are not always exact repeats. Equal values may be shown once. Read-outs that look alike come from different tables or passages of the source.

What was measured:
THIK-1 Y102A = target: T1, THIK-1 Y102A (Homo sapiens, UniProt Q9HB14, Y102A); experiment: Inside-out excised patch recordings, oocytes, THIK-1 Y102A mutant (lipid activation); assay type: cell-based; conditions: read-out: Linoleic acid EC50
T1 construct: expressed in transfected cells; host or cells: Xenopus oocytes (mRNA injection)
T1 sequence (Q9HB14 whole entry Y102A): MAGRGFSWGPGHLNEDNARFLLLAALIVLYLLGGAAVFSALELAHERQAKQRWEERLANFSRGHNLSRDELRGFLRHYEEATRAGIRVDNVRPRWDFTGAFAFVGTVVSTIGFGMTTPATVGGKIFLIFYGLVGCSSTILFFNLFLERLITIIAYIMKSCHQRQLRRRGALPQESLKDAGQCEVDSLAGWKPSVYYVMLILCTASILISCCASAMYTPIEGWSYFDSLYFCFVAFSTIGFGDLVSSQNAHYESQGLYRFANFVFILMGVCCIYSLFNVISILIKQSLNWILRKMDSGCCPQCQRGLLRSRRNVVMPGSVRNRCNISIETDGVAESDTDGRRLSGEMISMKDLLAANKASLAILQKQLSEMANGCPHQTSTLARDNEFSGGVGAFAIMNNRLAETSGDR
Description: Supplement 41594_2025_1497_MOESM2_ESM.xlsx, sheet "ExtData_Fig_S5f" | column: Linoleic acid EC50 (µM); Y102A

THIK-1 C135A = target: T2, THIK-1 C135A (Homo sapiens, UniProt Q9HB14, C135A); experiment: Inside-out excised patch recordings, oocytes, THIK-1 C135A mutant; assay type: cell-based; conditions: read-out: TPenA IC50
T2 construct: expressed in transfected cells; host or cells: Xenopus oocytes (mRNA injection)
T2 sequence (Q9HB14 1-408 C135A): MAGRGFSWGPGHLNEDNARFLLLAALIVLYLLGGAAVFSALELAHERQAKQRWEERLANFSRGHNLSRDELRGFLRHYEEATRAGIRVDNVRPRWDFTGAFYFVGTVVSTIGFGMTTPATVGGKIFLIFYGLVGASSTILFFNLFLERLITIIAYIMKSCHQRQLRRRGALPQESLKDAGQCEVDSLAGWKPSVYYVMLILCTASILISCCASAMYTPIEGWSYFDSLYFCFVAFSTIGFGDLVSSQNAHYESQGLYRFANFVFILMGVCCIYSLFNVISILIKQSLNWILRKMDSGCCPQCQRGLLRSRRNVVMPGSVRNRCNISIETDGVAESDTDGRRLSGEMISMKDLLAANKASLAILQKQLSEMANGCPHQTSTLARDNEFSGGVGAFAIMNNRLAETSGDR
Description: Human K2P13.1 THIK-1 (GenBank accession number: NM_022054) and human K2P12.1 THIK-2 (NM_022055.1) were used in this study. For functional expression studies, the respective K^+ channel subtype coding sequences were subcloned into the oocyte expression vector pSGEM or the dual-purpose expression vector pFAW[41] and verified by sequencing. All mutant channels were obtained by site-directed mutagenesis and verified by sequencing. To increase surface expression and macroscopic currents, measurements of THIK-2 channels used a mutated ER retention motif, (R11A R12A R14A R15A R16A; THIK-2*)[20]. Vector DNA was linearized with NheI or MluI, and mRNA was synthesized in vitro using the SP6 or T7 AmpliCap Max High Yield Message Maker Kit (Cellscript, USA) or HiScribe T7 ARCA mRNA Kit (New England Biolabs).
Two-electrode voltage–clamp (TEVC) studies were performed in Xenopus oocytes. All animal use conformed to the Guide for the Care and Use of Laboratory Animals (NIH Publication 85–23), and all experiments using Xenopus toads were approved by the local ethics panels. Oocytes were stored at 17 °C in ND96 recording solution composed of (in mM): 96 NaCl, 2 KCl, 1.8 CaCl2, 1 MgCl2, 5 HEPES (pH 7.5 adjusted with NaOH and HCl), supplemented with Na-pyruvate (275 mg L^–1), theophylline (90 mg L^–1) and gentamicin (50 mg L^–1). Oocytes were injected with 1 ng mRNA for WT or mutant channels, and were incubated for 24–48 h at 17 °C. Two-electrode voltage clamp recordings were then performed as previously described[42],[43]. […] Currents were recorded with an EPC10 amplifier (HEKA Electronics) and sampled at 10 kHz or higher, with filtering set to 3 kHz (–3 dB) or higher, as appropriate for sampling rate. For measurements of GPCR activation, whole-cell currents were recorded for THIK-1 in transiently transfected HEK-293 cells. […] Single-channel currents were recorded with an Axopatch 200B amplifier through a Digidata 1440A digitizer (Molecular Devices). Data were filtered at 2 kHz and recorded at a 200-kHz sampling rate with the program Clampex (Molecular Devices). […]

Compound	pEC50 (THIK-1 Y102A; individual recordings)	pEC50 (THIK-1 Y102A; mean)	pIC50 (THIK-1 C135A; C135A mutant)	pIC50 (THIK-1 C135A; THIK-1 C135A, individual recordings)	pIC50 (THIK-1 C135A; THIK-1 C135A, mean)
CCCCC/C=C\C/C=C\CCCCCCCC(=O)O [linoleic acid]	3.98 and 3.88 and 4.24 and 4.22 and 3.53 and 4.33 and 4.31 and 4.44	4.03			
CCCCC[N+](CCCCC)(CCCCC)CCCCC [TPenA, tetrapentylammonium]			2.97	2.90 and 2.81 and 2.93 and 3.13 and 2.84 and 3.21 and 3.33	2.97
